Experimental findings from ChEMBL document CHEMBL5150010 (J Med Chem, 2021) are described below.

A word on the IC50: it is the concentration needed to halve the response being measured. High values mean weaker potency in that assay, low ones greater potency in that assay. As usually defined, the CC50 is the concentration at which the toxic effect on the cells reaches its halfway point. One may read the half-life as how long it takes for the measured level to halve. Higher therefore signals slow decline. One may read the Tmax as the time from dosing to the highest level. The Cmax is the maximum level reached in the sampled fluid or tissue. One may read the Vd as a proportionality between amount in the body and measured concentration, not a real space. A low value points to little distribution into tissue. For orientation: bioavailability means dose-corrected exposure relative to a reference, in per cent. The low end stands for little systemic uptake, the high end for much systemic uptake. What is called AUC is the area under the concentration-time curve, a measure of exposure. Lower therefore signals less exposure. One may read the AUC(0-t) as exposure summed from dosing to a finite time, without extrapolation to infinity. Low values mean less exposure, high ones more exposure. As usually defined, the AUC(0-inf) is the area under the concentration-time curve extrapolated to infinity. Lower therefore signals less exposure. Usually microsomal CLint stands for the capacity of the preparation to metabolise the compound, expressed as a volume cleared per time. A high value points to faster metabolism. For orientation: CLint scaled means the rate of metabolic loss divided by the concentration. Lower therefore signals slow turnover. For orientation: share remaining means the share of the starting amount still present when the sample was taken.

The nature of series [1]: Inhibition of Influenza A virus H5N1-1220 Neuraminidase.
A short description of series [2]: Inhibition of Influenza A virus H9N2-S2 Neuraminidase.
Series [3] in a line: Inhibition of Influenza A virus H5N1 Neuraminidase.
Series [4] in a line: Inhibition of Influenza A virus H5N2 Neuraminidase.
A short description of series [5]: in vitro. The following applies: dog, MDCK cells.
Series [6] can be described thus: Half life in Sprague-Dawley rat at 2 mg/kg, iv measured upto 24 hrs by LC-MS/MS analysis. In kind it is ADME, organism-based. The following applies: in vivo.
The nature of series [7]: Half life in Sprague-Dawley rat at 20 mg/kg, po measured upto 24 hrs by LC-MS/MS analysis. In kind it is ADME, organism-based. The following applies: in vivo.
A short description of series [8]: Tmax in Sprague-Dawley rat at 2 mg/kg, iv measured upto 24 hrs by LC-MS/MS analysis. The format is ADME, organism-based. The settings on record: in vivo.
Series [9] is described as follows: Tmax in Sprague-Dawley rat at 20 mg/kg, po measured upto 24 hrs by LC-MS/MS analysis. The format is ADME, organism-based. The settings on record: in vivo.
Series [10] in a line: Cmax in Sprague-Dawley rat at 2 mg/kg, iv measured upto 24 hrs by LC-MS/MS analysis. The format is ADME, organism-based. Details: time < 24 hrs, dose 2 mg/kg, route iv. The following applies: in vivo.
Series [11] can be described thus: Cmax in Sprague-Dawley rat at 20 mg/kg, po measured upto 24 hrs by LC-MS/MS analysis. In kind it is ADME, organism-based. Details: dose 20 mg/kg, time < 24 hrs, route po. The settings on record: in vivo.
Series [12] in a line: Volume of distribution in Sprague-Dawley rat at 2 mg/kg, iv measured upto 24 hrs by LC-MS/MS analysis. In kind it is ADME, organism-based. The settings on record: in vivo.
Series [13] is described as follows: Oral bioavailability in Sprague-Dawley rat at 20 mg/kg measured upto 24 hrs by LC-MS/MS analysis. The format is ADME, organism-based. The settings on record: in vivo.
In the next series the target is Cytochrome P450 2C19 (Homo sapiens, UniProt P33261). The format is ADME, microsomes, Liver, Microsome.
The next series has as its target Cytochrome P450 2C9 (Homo sapiens, UniProt P11712). In kind it is ADME, microsomes, Liver, Microsome.
A short description of series [14]: Acute toxicity in Kunming mouse assessed as animal death at 1000 mg/kg, IG observed upto 1 week. The format is organism-based. The settings on record: in vivo, po, 168 h, time < 1 weeks.
Series [15] can be described thus: Acute toxicity in Kunming mouse assessed as lethargy at 1000 mg/kg, IG observed upto 1 week. The format is organism-based. The following applies: in vivo, po, 168 h, time < 1 weeks.
Series [16] is described as follows: Acute toxicity in Kunming mouse assessed as clonic convulsion at 1000 mg/kg, IG observed upto 1 week. In kind it is organism-based. The following applies: in vivo, po, 168 h, time < 1 weeks.
Series [17] can be described thus: Acute toxicity in Kunming mouse assessed as anorexia at 1000 mg/kg, IG observed upto 1 week. The format is organism-based. The settings on record: in vivo, po, 168 h, time < 1 weeks.
Series [18] is described as follows: Acute toxicity in Kunming mouse assessed as ruffled fur at 1000 mg/kg, IG observed upto 1 week. In kind it is organism-based. The following applies: in vivo, po, 168 h, time < 1 weeks.
Series [19] in a line: Acute toxicity in Kunming mouse assessed as increase in body weight at 1000 mg/kg, IG observed upto 1 week. The format is organism-based. The settings on record: in vivo, po, 168 h, time < 1 weeks.
Series [20] is described as follows: Subacute toxicity in Kunming mouse assessed as animal death at 50 mg/kg, IG mesured every second day for 2 weeks. In kind it is organism-based. The settings on record: in vivo, po, 336 h.
Series [21] in a line: Subacute toxicity in Kunming mouse assessed as food consumption at 50 mg/kg, IG mesured every second day for 2 weeks. The format is organism-based. The settings on record: in vivo, po, 336 h.
Series [22] can be described thus: Subacute toxicity in Kunming mouse assessed as water consumption at 50 mg/kg, IG mesured every second day for 2 weeks. The format is organism-based. The settings on record: in vivo, po, 336 h.
The nature of series [23]: Subacute toxicity in female Kunming mouse assessed as increase in body weight at 50 mg/kg, IG mesured every second day for 2 weeks. The settings on record: in vivo, po, 336 h. In kind it is organism-based.
Series [24] in a line: Subacute toxicity in male Kunming mouse assessed as increase in body weight at 50 mg/kg, IG mesured every second day for 2 weeks. The format is organism-based. The following applies: in vivo, po, 336 h.
Another series addresses T1, Cytochrome P450 1A2 (Homo sapiens, UniProt P05177).
T1 sequence (P05177 whole entry): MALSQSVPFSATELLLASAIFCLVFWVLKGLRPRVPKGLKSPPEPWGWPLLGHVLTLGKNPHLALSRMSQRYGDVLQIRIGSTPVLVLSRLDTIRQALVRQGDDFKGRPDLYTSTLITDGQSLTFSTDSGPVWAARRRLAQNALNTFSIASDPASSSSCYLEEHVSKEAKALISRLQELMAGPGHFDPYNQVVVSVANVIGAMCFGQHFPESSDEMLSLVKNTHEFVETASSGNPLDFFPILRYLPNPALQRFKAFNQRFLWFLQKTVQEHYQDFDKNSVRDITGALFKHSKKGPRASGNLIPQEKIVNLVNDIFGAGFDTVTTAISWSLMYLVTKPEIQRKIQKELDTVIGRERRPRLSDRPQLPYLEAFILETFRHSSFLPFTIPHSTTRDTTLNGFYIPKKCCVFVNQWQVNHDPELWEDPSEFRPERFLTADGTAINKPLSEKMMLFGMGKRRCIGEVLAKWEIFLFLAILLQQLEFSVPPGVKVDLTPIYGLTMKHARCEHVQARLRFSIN

In another series the target is Cytochrome P450 2D6 (Homo sapiens, UniProt P10635).
Another series addresses Cytochrome P450 3A4 (Homo sapiens, UniProt P08684).
For series [25] the following is noted: rat, in vivo, po, 20 mg/kg, 24 h.
A short description of series [26]: in vivo. The following applies: Sprague-Dawley, rat, iv, 2 mg/kg.
A short description of series [27]: in vivo. The following applies: Sprague-Dawley, rat, po, 20 mg/kg.
Series [28] can be described thus: in vivo. The following applies: Sprague-Dawley, rat, iv, 2 mg/kg. The source holds these as a separate data set.
Series [29] in a line: in vitro. The following applies: human, liver microsomes. (In general: Microsomes from liver hold many membrane-bound enzymes, among them those of drug oxidation.)
Series [30] is described as follows: in vitro. The following applies: human, liver microsomes. The source holds these as a separate data set.
A short description of series [31]: in vitro. The settings on record: human, liver.
Series [32] in a line: in vitro. The settings on record: human, liver microsomes. This is another data set of the same source.
Series [33] is described as follows: in vitro. The following applies: human, liver microsomes. This is another data set of the same source.

Chain of Cytochrome P450 3A4 (P08684 whole entry): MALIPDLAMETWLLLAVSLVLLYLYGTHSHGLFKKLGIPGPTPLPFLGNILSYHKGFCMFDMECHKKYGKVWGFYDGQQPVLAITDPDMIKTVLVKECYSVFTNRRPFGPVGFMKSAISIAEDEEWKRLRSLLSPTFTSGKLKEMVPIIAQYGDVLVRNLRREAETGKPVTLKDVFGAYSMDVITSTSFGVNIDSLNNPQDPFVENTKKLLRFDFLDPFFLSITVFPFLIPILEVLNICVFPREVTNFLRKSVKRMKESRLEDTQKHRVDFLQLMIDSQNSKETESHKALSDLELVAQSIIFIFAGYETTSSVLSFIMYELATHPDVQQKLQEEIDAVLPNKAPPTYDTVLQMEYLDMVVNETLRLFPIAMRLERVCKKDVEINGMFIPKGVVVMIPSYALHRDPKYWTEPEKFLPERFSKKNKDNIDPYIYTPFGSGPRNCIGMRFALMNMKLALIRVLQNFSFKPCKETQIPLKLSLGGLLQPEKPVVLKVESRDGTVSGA
Chain of Cytochrome P450 2C19 (P33261 whole entry): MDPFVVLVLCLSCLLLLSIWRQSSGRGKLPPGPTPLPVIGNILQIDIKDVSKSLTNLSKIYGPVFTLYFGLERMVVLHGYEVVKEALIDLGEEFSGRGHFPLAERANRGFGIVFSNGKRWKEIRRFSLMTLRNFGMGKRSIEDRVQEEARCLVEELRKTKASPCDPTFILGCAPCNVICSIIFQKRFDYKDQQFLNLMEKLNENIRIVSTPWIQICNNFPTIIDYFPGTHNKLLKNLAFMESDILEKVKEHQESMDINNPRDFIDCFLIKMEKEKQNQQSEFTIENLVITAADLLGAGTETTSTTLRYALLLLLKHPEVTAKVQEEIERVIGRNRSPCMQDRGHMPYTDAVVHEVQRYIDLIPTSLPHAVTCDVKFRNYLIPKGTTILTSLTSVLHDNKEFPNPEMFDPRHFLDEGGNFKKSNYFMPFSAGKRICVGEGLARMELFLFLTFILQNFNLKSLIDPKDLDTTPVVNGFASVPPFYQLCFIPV
Chain of Cytochrome P450 2D6 (P10635 whole entry): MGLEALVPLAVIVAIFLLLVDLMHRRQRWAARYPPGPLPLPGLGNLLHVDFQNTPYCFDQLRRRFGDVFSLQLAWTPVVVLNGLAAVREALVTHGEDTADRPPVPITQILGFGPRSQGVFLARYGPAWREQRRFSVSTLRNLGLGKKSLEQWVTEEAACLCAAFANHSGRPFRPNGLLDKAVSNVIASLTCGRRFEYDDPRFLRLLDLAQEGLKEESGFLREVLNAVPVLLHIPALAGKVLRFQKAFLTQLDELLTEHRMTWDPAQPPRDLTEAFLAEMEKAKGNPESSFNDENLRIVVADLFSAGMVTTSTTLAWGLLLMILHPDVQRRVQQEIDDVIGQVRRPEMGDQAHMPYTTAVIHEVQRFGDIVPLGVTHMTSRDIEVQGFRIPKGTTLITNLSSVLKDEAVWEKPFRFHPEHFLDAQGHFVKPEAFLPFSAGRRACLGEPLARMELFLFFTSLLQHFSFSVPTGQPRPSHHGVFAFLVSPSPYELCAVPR
Chain of Cytochrome P450 2C9 (P11712 whole entry): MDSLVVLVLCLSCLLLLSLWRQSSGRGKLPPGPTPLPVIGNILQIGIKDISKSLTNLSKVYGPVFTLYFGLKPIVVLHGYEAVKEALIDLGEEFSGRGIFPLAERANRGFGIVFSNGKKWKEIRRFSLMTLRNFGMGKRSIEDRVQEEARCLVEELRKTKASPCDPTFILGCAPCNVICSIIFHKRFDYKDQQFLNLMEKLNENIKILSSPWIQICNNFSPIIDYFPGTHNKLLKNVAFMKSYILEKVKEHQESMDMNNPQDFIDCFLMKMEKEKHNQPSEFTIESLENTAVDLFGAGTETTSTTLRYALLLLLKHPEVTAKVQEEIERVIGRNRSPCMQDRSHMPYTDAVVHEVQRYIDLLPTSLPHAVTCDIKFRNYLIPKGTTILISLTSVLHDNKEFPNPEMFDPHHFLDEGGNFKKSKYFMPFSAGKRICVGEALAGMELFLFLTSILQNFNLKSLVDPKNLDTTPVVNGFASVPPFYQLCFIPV

Take `CCC(CC)O[C@@H]1C=C(C(=O)O)C[C@H](NCc2ccc(-c3ccccc3)cc2)[C@H]1NC(C)=O`: the figures for the IC50 in series [1] and in series [2] were 0.0019 µM and 0.58 µM, respectively.
As for `CCC(CC)O[C@@H]1C=C(C(=O)O)C[C@H](NCc2ccc(Sc3ccccc3)cc2)[C@H]1NC(C)=O`, the IC50 in [3] is 0.00096 µM; in series [4], 0.869 µM.
In turn, `CCC(CC)O[C@@H]1C=C(C(=O)O)C[C@H](NCc2ccc3oc4ccccc4c3c2)[C@H]1NC(C)=O` had a CC50 at 48 h in the series “in vitro [5]” of 250 µM.
Same read-out and setting: as for `CCC(CC)O[C@@H]1C=C(C(=O)O)C[C@H](NCc2ccc3c(c2)c2ccccc2n3CC)[C@H]1NC(C)=O`, the figure is 250 µM.
With `CCC(CC)O[C@@H]1C=C(C(=O)O)C[C@H](NCc2ccc3sc4ccccc4c3c2)[C@H]1NC(C)=O`, the figures for the half-life (in series [6]; in series [7]; in the series “in vitro [29]”) were 44.6 min, 61.8 min and more than 145 min, respectively. The results for the Tmax in [8] and in [9] were 4.98 min and 30 min, respectively. Further, the figures for the Cmax in series [10] and in series [11] were 13000 ng/mL and 6300 ng/mL, respectively. Besides, in [12], the Vd was 0.161 L/kg. In addition, the bioavailability in series [13] was found to be 13.7%. Further, the IC50 at Cytochrome P450 2C19 is more than 100 µM; at Cytochrome P450 2C9, 60.8 µM; on Cytochrome P450 1A2, 89.4 µM; against Cytochrome P450 2D6 it was 58.9 µM; at Cytochrome P450 3A4 it was more than 100 µM. For the same compound, the Activity entry was “Non-Toxic” in series [14]; “Non-Toxic” in series [15]; “Non-Toxic” in series [16]; “Non-Toxic” in series [17]; “Non-Toxic” in series [18]; “Toxic” in series [19]. For the same compound, the Activity result was “Non-Toxic” in series [20]; “Non-Toxic” in series [21]; “Non-Toxic” in series [22]; “Toxic” in series [23]; “Toxic” in [24]. In addition, the AUC in series [25] is 5854 ng·h/mL. Besides, the results for the AUC(0-t) at 24 h in the series “in vivo [26]” and in the series “in vivo [27]” were 4280 ng·h/mL and 5830 ng·h/mL, respectively. The same compound displayed an AUC(0-inf) at 24 h in the series “in vivo [28]” of 4290 ng·h/mL. Further, half-maximal cytotoxicity in “in vitro [5]” (CC50 at 48 h) was put at 250 µM. Moreover, in “in vitro [30]”, the microsomal CLint is less than 9.6 µL/min/mg. In the series “in vitro [31]”, this compound gave a CLint scaled of less than 8.6 mL/min/kg. In addition, the values for the share remaining at 1 h in “in vitro [32]” and in “in vitro [33]” were 99.6% and 84.7%, respectively.
The compound `CCC(CC)O[C@@H]1C=C(C(=O)O)C[C@H](NCc2c3ccccc3cc3ccccc23)[C@H]1NC(C)=O` registered a CC50 at 48 h in “in vitro [5]” of 250 µM.
For the compound `CCC(CC)O[C@@H]1C=C(C(=O)O)C[C@H](NCc2ccc3c(c2)Cc2ccccc2-3)[C@H]1NC(C)=O`, in “in vitro [5]”, the CC50 at 48 h is 250 µM.
Consider `O=C(O)Cc1ccccc1Nc1c(Cl)cccc1Cl` [DICLOFENAC], for which the half-life in the series “in vitro [29]” was found to be 8.2 min. In “in vitro [30]”, this compound displayed a microsomal CLint of 168 µL/min/mg. This compound registered a CLint scaled in the series “in vitro [31]” of 151 mL/min/kg.
With `CCC(CC)O[C@@H]1C=C(C(=O)O)C[C@H](N)[C@H]1NC(C)=O` [OSELTAMIVIR CARBOXYLATE], half-maximal cytotoxicity in “in vitro [5]” (CC50 at 48 h) was put at 250 µM.
With `C[C@]12CC[C@H]3[C@@H](CCC4=CC(=O)CC[C@@]43C)[C@@H]1CC[C@@H]2O` [TESTOSTERONE], the half-life in the series “in vitro [29]” amounted to 18.8 min. The compound further gave a microsomal CLint in “in vitro [30]” of 73.6 µL/min/mg. Besides, the CLint scaled in “in vitro [31]” was found to be 66.2 mL/min/kg. For the same compound, the amount remaining at 1 h in “in vitro [32]” worked out at 9.8%; in the series “in vitro [33]”, 87.2%.
